Assay results: PMC3509384 (Anesthesiology, 2012)
Read-outs that look alike come from different tables or passages of the source.

Assays:
rats = assay: Loss of righting reflexes; assay type: in vivo, Sprague-Dawley rats; details: for R/S ED50 ratio: ED50 for LORR of (R)-form versus (S)-form of the diastereometric pair; for R/S ED50 ratio / Slope of Duration vs. Log Dose ± SD / ED50 ± SD for loss of righting reflexes (LORR): rats; for death of rat after dosing: one rat, 20 mg/kg dose; for death of rat after dosing / Slope of Duration vs. Log Dose ± SD / ED50 ± SD for loss of righting reflexes (LORR): intravenous bolus; for Slope of Duration vs. Log Dose ± SD: duration of LORR vs logarithm of dose; for ED50 ± SD for loss of righting reflexes (LORR): method of Waud
[1] = In vitro metabolic half-life in pooled rat blood; assay type: in vitro ADME, Sprague-Dawley rats; details: for Blood Half-Life (95% CI): pooled rat blood, 37°C, 200 µM
[2] = Octanol:water partition coefficient; assay type: physicochemical; details: water buffered with 10 mM Tris (pH 7.4)
[3] = ref Pejo et al.[8]; cited from earlier work

| Compound | R/S ED50 ratio (rats) | death of rat after dosing (rats) | Slope of Duration vs. Log Dose ± SD (rats) | ED50 ± SD for loss of righting reflexes (LORR) (rats) [mg/kg] | Blood Half-Life (95% CI) [1] | Octanol/Water Partition Coefficient ± SD [2] | Octanol/Water Partition Coefficient ± SD [3] | half-life at 200 µM ([1]; Sprague-Dawley, rat, pooled heparinised whole blood) [h] |
| --- | --- | --- | --- | --- | --- | --- | --- | --- |
| α-methyl-methoxycarbonyl etomidate | 1.7 |  |  |  |  |  |  |  |
| methyl-methoxycarbonyl metomidate | 2.7 |  |  |  |  |  |  |  |
| COC(=O)CCOC(=O)c1cncn1[C@@H](c1ccccc1)C(C)C [(R)-isopropyl- methoxycarbonyl metomidate] |  | died | 6.6 ± 1.3 min/(log mg/kg) | 3.6 ± 0.8 | 0.15 (0.15–0.16) min | 3830 ± 310 |  |  |
| β-methyl-methoxycarbonyl etomidate | 1.2 |  |  |  |  |  |  |  |
| COC(=O)C(C)(C)COC(=O)c1cncn1[C@H](C)c1ccccc1 [α-dimethyl- methoxycarbonyl etomidate] |  |  | 9.8 ± 1.5 min/(log mg/kg) | 2.4 ± 1 | 2.6 (1.9–4.2) min | 2240 ± 150 |  |  |
| COC(=O)[C@@H](C)COC(=O)c1cncn1[C@H](C)c1ccccc1 [α-(S)-methyl- methoxycarbonyl etomidate] |  |  | 2.4 ± 0.3 min/(log mg/kg) | 3.1 ± 0.4 | 0.76 (0.58–1.0) min | 530 ± 170 |  |  |
| COC(=O)C(OC(=O)c1cncn1C(C)c1ccccc1)C(C)C (stereo not drawn) [isopropyl-methoxycarbonyl metomidate] | 3.0 |  |  |  |  |  |  |  |
| CCOC(=O)c1cncn1[C@H](C)c1ccccc1 [Etomidate, (R)-ethyl-1-(1-phenylethyl)-1H-imidazole-5-carboxylate, reference compound] |  |  | 24.6 ± 4.7 min/(log mg/kg) |  |  |  | 800 ± 180 |  |
| COC(=O)[C@@H](C)OC(=O)c1cncn1[C@H](C)c1ccccc1 [(R)-methyl- methoxycarbonyl metomidate] |  |  | 4.6 ± 0.7 min/(log mg/kg) | 9.6 ± 1.9 | <0.03 min | 380 ± 15 |  |  |
| Cyclopropyl- methoxycarbonyl metomidate |  |  | 6.9 ± 0.5 min/(log mg/kg) | 0.69 ± 0.04 | 0.57 (0.49–0.68) min | 420 ± 11 |  |  |
| COC(=O)CC(C)(C)OC(=O)c1cncn1C(C)c1ccccc1 (stereo not drawn) [β-dimethyl- methoxycarbonyl etomidate] |  |  | 11.9 ± 0.6 min/(log mg/kg) | 1.9 ± 0.3 | 23.4 (19.6–28.9) min | 1580 ± 40 |  |  |
| COC(=O)CCOC(=O)c1cncn1[C@H](C)c1ccccc1 [Methoxycarbonyl etomidate] |  |  | 1.0 ± 0.3 min/(log mg/kg) | 5.3 ± 1.5 | 0.41 (0.31–0.60) min | 190 ± 25 |  |  |
| COC(=O)[C@H](C)COC(=O)c1cncn1[C@H](C)c1ccccc1 [α-(R)-methyl- methoxycarbonyl etomidate] |  |  | 2.6 ± 0.3 min/(log mg/kg) | 5.2 ± 0.5 | 0.19 (0.17–0.22) min | 670 ± 120 |  |  |
| COC(=O)COC(=O)c1cncn1[C@H](C)c1ccccc1 [Methoxycarbonyl metomidate] |  |  | 1.6 ± 0.4 min/(log mg/kg) | 11.1 ± 0.8 | <0.03 min | 159 ± 15 |  |  |
| COC(=O)C(C)(C)OC(=O)c1cncn1[C@H](C)c1ccccc1 [Dimethyl- methoxycarbonyl metomidate] |  | died | 9.6 ± 0.8 min/(log mg/kg) | 0.72 ± 0.16 | 8.7 (7.4–10.7) min | 660 ± 110 |  |  |
| COC(=O)C[C@@H](C)OC(=O)c1cncn1[C@H](C)c1ccccc1 [β-(R)-methyl- methoxycarbonyl etomidate] |  |  | 2.9 ± 0.8 min/(log mg/kg) | 3.5 ± 0.6 | 0.91 (0.76–1.1) min | 500 ± 24 |  |  |
| COC(=O)CCOC(=O)c1cncn1[C@H](c1ccccc1)C(C)C [(S)-isopropyl- methoxycarbonyl metomidate] |  |  | 12.1 ± 1.1 min/(log mg/kg) | 1.2 ± 0.19 | 15.5 (11.6–23.1) min | 2860 ± 67 |  |  |
| COC(=O)[C@H](C)OC(=O)c1cncn1[C@H](C)c1ccccc1 [(S)-methyl- methoxycarbonyl metomidate] |  |  | 1.9 ± 0.2 min/(log mg/kg) | 3.5 ± 0.4 | 0.14 (0.08–0.62) min | 330 ± 16 |  |  |
| COC(=O)c1cncn1C(C)c1ccccc1 (stereo not drawn) [Metomidate, reference compound] |  |  | 33.0 ± 3.9 min/(log mg/kg) |  |  |  |  | 2.38 |
| COC(=O)C[C@H](C)OC(=O)c1cncn1[C@H](C)c1ccccc1 [β-(S)-methyl- methoxycarbonyl etomidate] |  |  | 2.0 ± 0.5 min/(log mg/kg) | 2.9 ± 0.3 | 0.72 (0.56–0.98) min | 484 ± 12 |  |  |
